Test results as given in ChEMBL document CHEMBL4627264, “Synthesis and evaluation of novel radioiodinated PSMA targeting ligands for potential radiotherapy of prostate cancer” (Bioorg Med Chem, 2020).
Active and inactive are the calls of the source. No cut-off for these calls is given here.

Assays:
[1] = Drug uptake in liver of CD-1 nude mouse xenografted with PC3-PIP cells at 6 nM to 9 nM, iv measured at 4 hrs using 125I-labelled compound by gamma counter analysis; assay type: ADME, organism-based; conditions: in vivo, 0.006 µM
[2] = Drug uptake in kidney of CD-1 nude mouse xenografted with PC3-PIP cells at 6 nM to 9 nM, iv measured at 4 hrs using 125I-labelled compound by gamma counter analysis; assay type: ADME, organism-based; conditions: in vivo, 0.006 µM
[3] = biological target: T1, Glutamate carboxypeptidase 2 (Homo sapiens, UniProt Q04609); experiment: Binding affinity to PSMA in human PC3-PIP cells assessed as drug uptake per 10^6 cells at 0.2 nM incubated for 2 hrs followed by compound washout measured using 125I-labelled compound by gamma counter analysis; assay type: ADME, cell-based; conditions: 0.0002 µM
Target sequence in this assay (Q04609 whole entry): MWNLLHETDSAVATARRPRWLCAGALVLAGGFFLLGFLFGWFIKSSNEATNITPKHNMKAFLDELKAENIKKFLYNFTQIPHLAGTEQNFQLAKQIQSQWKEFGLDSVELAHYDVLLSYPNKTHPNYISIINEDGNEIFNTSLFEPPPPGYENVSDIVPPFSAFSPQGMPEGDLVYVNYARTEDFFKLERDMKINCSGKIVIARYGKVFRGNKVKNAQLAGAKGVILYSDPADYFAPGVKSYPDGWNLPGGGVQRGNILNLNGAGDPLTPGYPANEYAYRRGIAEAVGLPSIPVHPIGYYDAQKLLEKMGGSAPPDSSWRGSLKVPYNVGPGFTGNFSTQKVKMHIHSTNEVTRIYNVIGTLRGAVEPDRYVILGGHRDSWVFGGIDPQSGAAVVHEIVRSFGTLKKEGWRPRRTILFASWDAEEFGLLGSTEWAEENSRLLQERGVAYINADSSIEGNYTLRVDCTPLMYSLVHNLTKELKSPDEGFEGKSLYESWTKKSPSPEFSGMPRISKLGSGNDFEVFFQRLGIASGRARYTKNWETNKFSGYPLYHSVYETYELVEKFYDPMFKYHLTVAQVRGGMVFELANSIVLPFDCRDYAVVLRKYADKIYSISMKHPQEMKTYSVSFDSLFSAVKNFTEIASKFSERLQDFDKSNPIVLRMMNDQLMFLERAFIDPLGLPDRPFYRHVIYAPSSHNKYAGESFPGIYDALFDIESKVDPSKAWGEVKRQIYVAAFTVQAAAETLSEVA

[4] = Drug uptake in liver of CD-1 nude mouse xenografted with PC3-PIP cells at 6 nM to 9 nM, iv measured at 24 hrs using 125I-labelled compound by gamma counter analysis; assay type: ADME, organism-based; conditions: in vivo, 0.006 µM
[5] = Drug uptake in tumor of CD-1 nude mouse xenografted with PC3-PIP cells at 6 nM to 9 nM, iv measured at 4 hrs using 125I-labelled compound by gamma counter analysis; assay type: ADME, organism-based, Neoplasm; conditions: in vivo, 0.006 µM
[6] = Drug uptake in kidney of CD-1 nude mouse xenografted with PC3-PIP cells at 6 nM to 9 nM, iv measured at 24 hrs using 125I-labelled compound by gamma counter analysis; assay type: ADME, organism-based; conditions: in vivo, 0.006 µM
[7] = Drug internalization in human PC3-PIP cells at 0.2 nM incubated for 1 hr followed by compound washout measured using 125I-labelled compound by gamma counter analysis; assay type: ADME, cell-based; conditions: 0.0002 µM
[8] = Drug uptake in kidney of CD-1 nude mouse xenografted with PC3-PIP cells at 6 nM to 9 nM, iv measured at 1 hr using 125I-labelled compound by gamma counter analysis; assay type: ADME, organism-based; conditions: in vivo, 0.006 µM
[9] = Drug uptake in human PC3-PIP cells at 0.2 nM incubated prior to compound washout measured using 125I-labelled compound by gamma counter analysis; assay type: ADME, cell-based; conditions: 0.0002 µM, TDE = time-dependent effect
[10] = Drug internalization in human PC3-PIP cells at 0.2 nM incubated for 2 hrs followed by compound washout measured using 125I-labelled compound by gamma counter analysis; assay type: ADME, cell-based; conditions: 0.0002 µM
[11] = Drug uptake in tumor of CD-1 nude mouse xenografted with PC3-PIP cells at 6 nM to 9 nM, iv measured at 24 hrs using 125I-labelled compound by gamma counter analysis; assay type: ADME, organism-based, Neoplasm; conditions: in vivo, 0.006 µM
[12] = biological target: T1, Glutamate carboxypeptidase 2; experiment: Binding affinity to PSMA in human PC3-PIP cells assessed as drug uptake per 10^6 cells at 0.2 nM incubated for 1 hr followed by compound washout measured using 125I-labelled compound by gamma counter analysis; assay type: ADME, cell-based; conditions: 0.0002 µM
Target sequence in this assay (Q04609 whole entry): as above

[13] = Drug uptake in tumor of CD-1 nude mouse xenografted with PC3-PIP cells at 6 nM to 9 nM, iv measured at 1 hr using 125I-labelled compound by gamma counter analysis; assay type: ADME, organism-based, Neoplasm; conditions: in vivo, 0.006 µM
[14] = Drug uptake in liver of CD-1 nude mouse xenografted with PC3-PIP cells at 6 nM to 9 nM, iv measured at 1 hr using 125I-labelled compound by gamma counter analysis; assay type: ADME, organism-based; conditions: in vivo, 0.006 µM
[15] = Drug uptake in kidney of CD-1 nude mouse xenografted with PC3-PIP cells at 6 nM to 9 nM, iv measured after 2 mins to 1440 mins using 125I-labelled compound by gamma counter analysis; assay type: ADME, organism-based; conditions: in vivo, 0.006 µM
[16] = Drug uptake in human PC3-PIP cells at 0.2 nM incubated for 1 hr in presence of PSMA inhibitor PSMA-617 measured using 125I-labelled compound by gamma counter analysis; assay type: ADME, cell-based; conditions: 0.0002 µM
[17] = biological target: T1, Glutamate carboxypeptidase 2; experiment: Displacement of [125I]MIP-1095 from PSMA in human PC3-PIP cells after 1 hr by gamma counter analysis; assay type: cell-based
Target sequence in this assay (Q04609 whole entry): as above

[18] = biological target: T1, Glutamate carboxypeptidase 2; experiment: Inhibition of […] binding to PSMA in human PC3-PIP cells at 0.2 nM incubated for 1 hr; assay type: cell-based
Target sequence in this assay (Q04609 whole entry, looked up): as the sequence (Q04609 whole entry) above

[19] = Uptake in kidney of CD-1 nude mouse xenografted with PC3-PIP cells at 6 nM to 9 nM, iv measured at 1 hr using 125I-labelled compound by gamma counter analysis; conditions: in vivo, 0.006 µM
[20] = Uptake in kidney of CD-1 nude mouse xenografted with PC3-PIP cells at 6 nM to 9 nM, iv measured at 24 hrs using 125I-labelled compound by gamma counter analysis; conditions: in vivo, 0.006 µM
[21] = Uptake in kidney of CD-1 nude mouse xenografted with PC3-PIP cells at 6 nM to 9 nM, iv measured at 4 hrs using 125I-labelled compound by gamma counter analysis; conditions: in vivo, 0.006 µM
[22] = Drug uptake in large intestine of CD-1 nude mouse xenografted with PC3-PIP cells at 6 nM to 9 nM, iv measured at 4 hrs using 125I-labelled compound by gamma counter analysis; assay type: ADME, organism-based; conditions: in vivo, 0.006 µM
[23] = Drug uptake in large intestine of CD-1 nude mouse xenografted with PC3-PIP cells at 6 nM to 9 nM, iv measured at 1 hr using 125I-labelled compound by gamma counter analysis; assay type: ADME, organism-based; conditions: in vivo, 0.006 µM
[24] = Drug uptake in liver of CD-1 nude mouse xenografted with PC3-PIP cells at 6 nM to 9 nM, iv measured at 2 mins using 125I-labelled compound by gamma counter analysis; assay type: ADME, organism-based; conditions: in vivo, 0.006 µM
[25] = Drug uptake in small intestine of CD-1 nude mouse xenografted with PC3-PIP cells at 6 nM to 9 nM, iv measured at 1 hr using 125I-labelled compound by gamma counter analysis; assay type: ADME, organism-based; conditions: in vivo, 0.006 µM
[26] = Drug uptake in spleen of CD-1 nude mouse xenografted with PC3-PIP cells at 6 nM to 9 nM, iv measured at 4 hrs using 125I-labelled compound by gamma counter analysis; assay type: ADME, organism-based; conditions: in vivo, 0.006 µM
[27] = Clearance in tumor of CD-1 nude mouse xenografted with PC3-PIP cells at 6 nM to 9 nM, iv measured at 4 hrs using 125I-labelled compound by gamma counter analysis; assay type: ADME, organism-based, Neoplasm; conditions: in vivo, 0.006 µM

Row | SMILES | Drug uptake [3] [%ID] | Drug uptake [7] [%] | Drug uptake [9] | Drug uptake [10] [%] | Drug uptake [12] [%ID] | Drug uptake [15] | Drug uptake [16] | inhibition [18] | further results
1 | O=C(O)CC[C@H](NC(=O)N[C@@H](CCCCNC(=O)[C@H](Cc1ccccc1)NC(=O)[C@H](CCC(=O)O)NC(=O)[C@H](CCC(=O)O)NC(=O)c1ccc([125I])cc1)C(=O)O)C(=O)O | 75 | 37 | Tde | 47 | 43 | Active | Not Active |  | Drug uptake [1]: 3.64 % ID/g; Drug uptake [2]: 80.3 % ID/g; Drug uptake [4]: 0.17 % ID/g; Drug uptake [5]: 23.1 % ID/g; Drug uptake [6]: 6.91 % ID/g; Drug uptake [8]: 71.8 % ID/g; Drug uptake [11]: 17 % ID/g; Drug uptake [13]: 18.5 % ID/g; Drug uptake [14]: 7.18 % ID/g
2 | O=C(O)CC[C@H](NC(=O)N[C@@H](CCCCNC(=O)Nc1ccc(I)cc1)C(=O)O)C(=O)O [MIP-1095] |  |  |  |  |  |  |  |  | IC50 [17]: 3 nM
3 | O=C(O)CC[C@H](NC(=O)N[C@@H](CCCCNC(=O)[C@H](Cc1ccccc1)NC(=O)[C@H](CCC(=O)O)NC(=O)c1ccc(I)cc1)C(=O)O)C(=O)O |  |  |  |  |  |  |  | Active | 
4 | O=C(O)CC[C@H](NC(=O)N[C@@H](CCCCNC(=O)Nc1ccc([125I])cc1)C(=O)O)C(=O)O | 53 | 38 | Tde | 47 | 40 | Active | Not Active |  | Drug uptake [1]: 6.45 % ID/g; Drug uptake [4]: 0.71 % ID/g; Drug uptake [14]: 10.2 % ID/g
5 | O=C(O)CC[C@H](NC(=O)N[C@@H](CCCCNC(=O)[C@H](Cc1ccccc1)NC(=O)COc1ccc(C[C@H](NC(=O)Nc2ccc(I)cc2)C(=O)O)cc1)C(=O)O)C(=O)O |  |  |  |  |  |  |  | Active | IC50 [17]: 13 nM
6 | O=C(O)CC[C@H](NC(=O)N[C@@H](CCCCNC(=O)[C@H](Cc1ccccc1)NC(=O)COc1ccc(C[C@H](NC(=O)[C@H](CCC(=O)O)NC(=O)[C@H](CCC(=O)O)NC(=O)c2ccc([125I])cc2)C(=O)O)cc1)C(=O)O)C(=O)O | 67 | 62 | Tde | 64 | 39 | Active | Not Active |  | Drug uptake [19]: 127.8 % ID/g; Drug uptake [20]: 136.4 % ID/g; Drug uptake [21]: 138.1 % ID/g; Drug uptake [5]: 17.4 % ID/g; Drug uptake [11]: 11.1 % ID/g; Drug uptake [13]: 17.2 % ID/g
7 | O=C(O)CC[C@H](NC(=O)N[C@@H](CCCCNC(=O)[C@H](Cc1ccccc1)NC(=O)COc1ccc(C[C@H](NC(=O)CNC(=O)c2ccc([125I])cc2)C(=O)O)cc1)C(=O)O)C(=O)O | 52 | 51 | Tde | 55 | 36 | Not Active | Not Active |  | Drug uptake [22]: 9.98 % ID/g; Drug uptake [23]: 21.6 % ID/g; Drug uptake [24]: 29.4 % ID/g
8 | O=C(O)CC[C@H](NC(=O)N[C@@H](CCCCNC(=O)[C@H](Cc1ccccc1)NC(=O)[C@H](CCC(=O)O)NC(=O)c1ccc([125I])cc1)C(=O)O)C(=O)O | 76 | 36 | Tde | 45 | 43 | Active | Not Active |  | Drug uptake [2]: 25.4 % ID/g; Drug uptake [5]: 5.17 % ID/g; Drug uptake [8]: 41.4 % ID/g; Drug uptake [13]: 10.7 % ID/g
9 | O=C(O)CC[C@H](NC(=O)N[C@@H](CCCCNC(=O)[C@H](Cc1ccccc1)NC(=O)[C@H](CCC(=O)O)NC(=O)[C@H](CCC(=O)O)NC(=O)c1ccc(I)cc1)C(=O)O)C(=O)O |  |  |  |  |  |  |  | Active | 
10 | O=C(O)CC[C@H](NC(=O)N[C@@H](CCCCNC(=O)[C@H](Cc1ccccc1)NC(=O)COc1ccc(C[C@H](NC(=O)[C@H](CCC(=O)O)NC(=O)[C@H](CCC(=O)O)NC(=O)c2ccc(I)cc2)C(=O)O)cc1)C(=O)O)C(=O)O |  |  |  |  |  |  |  | Active | IC50 [17]: 3.52 nM
11 | O=C(O)CC[C@H](NC(=O)N[C@@H](CCCCNC(=O)[C@H](Cc1ccccc1)NC(=O)COc1ccc(C[C@H](NC(=O)[C@H](CCC(=O)O)NC(=O)c2ccc(I)cc2)C(=O)O)cc1)C(=O)O)C(=O)O |  |  |  |  |  |  |  | Active | 
12 | O=C(O)CC[C@H](NC(=O)N[C@@H](CCCCNC(=O)[C@H](Cc1ccccc1)NC(=O)COc1ccc(C[C@H](NC(=O)Nc2ccc([125I])cc2)C(=O)O)cc1)C(=O)O)C(=O)O | 60 | 73 | Tde | 76 | 31 | Not Active | Not Active |  | Drug uptake [22]: 51.4 % ID/g; Drug uptake [25]: 49.7 % ID/g; Drug uptake [24]: 50.6 % ID/g
13 | O=C(O)CC[C@H](NC(=O)N[C@@H](CCCCNC(=O)[C@H](Cc1ccccc1)NC(=O)COc1ccc(C[C@H](NC(=O)[C@H](CCC(=O)O)NC(=O)c2ccc([125I])cc2)C(=O)O)cc1)C(=O)O)C(=O)O | 76 | 58 | Tde | 60 | 49 | Active | Not Active |  | Drug uptake [2]: 114.7 % ID/g; Drug uptake [5]: 14.3 % ID/g; Drug uptake [26]: 15.4 % ID/g; Drug uptake [8]: 174.6 % ID/g; Drug uptake [13]: 26.2 % ID/g; CL [27]: 45%
14 | O=C(O)CC[C@H](NC(=O)N[C@@H](CCCCNC(=O)[C@H](Cc1ccccc1)NC(=O)COc1ccc(C[C@H](NC(=O)CNC(=O)c2ccc(I)cc2)C(=O)O)cc1)C(=O)O)C(=O)O |  |  |  |  |  |  |  | Active | IC50 [17]: 1.33 nM
